Results on 24 compounds are retold here after PubChem BioAssay (NCI).

Experiment in all cases: inhibition of tumour cell growth, NCI panel, 48 h
Assay [1] relates to 786-0 renal.
Assay [2] has as its system A498 renal.
Assay [3] has as its system COLO 205 colon.
The subject of assay [4] is HCC-2998 colon.
Assay [5] deals with HCT-15 colon.
Assay [6] concerns HT29 colon.
Assay [7] concerns K-562 leukemia.
Assay [8] deals with MCF7 breast.
Assay [9] deals with MDA-N.
Assay [10] deals with SF-268 CNS.
Assay [11] concerns U251 CNS.

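Where inhibition never reached the appropriate level, the endpoint shown equals the highest concentration tested. Otherwise, values were interpolated linearly from a five-concentration, 48-hour dose response in 96-well plates. Definition used: TGI = concentration required for complete inhibition of growth.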 Bounds are passed on as bounds.

In the case of `Cc1ccc(S(=O)(=O)N(CC(O)COc2ccccc2)c2ccccc2Cl)cc1` (centres undefined), the TGI in assay [1] was found to be 32.4 µM; in assay [2] it was 35 µM; in assay [3] it was 34 µM; in assay [4], 37 µM; in [5] it was 29.3 µM; in [6] it was 31.9 µM. Besides, the TGI worked out at 36.1 µM in [7]; 58.5 µM in assay [8]; 33.2 µM in [9]; 35.7 µM in assay [10]; 29.2 µM in assay [11].
Take `CCOC(=O)/C(C(N)=O)=C(/O)c1cnccn1`: the TGI in [1], in [2], in assay [3], in [4], in assay [5] and in assay [6] was > 100 µM each time. Moreover, the TGI in assay [7], in assay [8], in assay [9], in assay [10] and in [11] was > 100 µM throughout.
For `COc1ccc(C2=Nn3c(nc4sc5c(c4c3=O)CCCC5)SC2)cc1`, the TGI in assay [1], in [2], in assay [3], in [4], in assay [5] and in assay [6] was > 100 µM in each case. Also, the TGI in assay [7], in assay [8], in assay [9], in assay [10] and in assay [11] was > 100 µM in each case.
On to `CCc1cc2c(cc1O)CC[C@@H]1[C@@H]2CC[C@]2(C)[C@@H](O)CC[C@@H]12`, for which the TGI in assay [1] was found to be 17.8 µM; in [2] it was 34.6 µM; in assay [3], 31.9 µM; in assay [4], 24 µM; in assay [5] it was 29.2 µM; in assay [6] it was 29.3 µM. Moreover, the TGI in [7] was 14.5 µM; in assay [8], 10.4 µM; in [9], 8.62 µM; in [10], 24.6 µM; in [11], 16.7 µM.
In the case of `COC(=O)c1cc(NC(=O)Cn2c3ccccc3c3ccccc32)cn1C`, the TGI was 72.2 µM in [1]; > 100 µM in [2]; > 100 µM in assay [3]; > 100 µM in assay [4]; > 100 µM in assay [5]; > 100 µM in assay [6]. For the same compound, the TGI in assay [7], in assay [8], in [9], in assay [10] and in assay [11] was > 100 µM throughout.
On to `O=C1C(Nc2ccc(S(=O)(=O)Nc3cnc4ccccc4n3)cc2)=CC(=Nc2ccc(S(=O)(=O)Nc3cnc4ccccc4n3)cc2)c2ccccc21`, for which the TGI in assay [1] came to 31.6 µM; in [2], 30.3 µM; in [3] it was 33.1 µM; in assay [4], 31.3 µM; in assay [5], 33 µM; in [6] it was 36.3 µM. The TGI in [7] is > 74.9 µM; in [8], 42.4 µM; in [9], 34.8 µM; in assay [10], 38.2 µM; in assay [11], 34 µM.
In the case of `Cn1c(SCc2ccc([N+](=O)[O-])cc2)nnc1C12CC3CC(CC(C3)C1)C2`, the TGI in assay [1], in assay [2], in [3], in assay [4], in [5] and in [6] was > 10 µM each time. Also, the TGI in assay [7], in assay [8], in [9], in assay [10] and in assay [11] was > 10 µM throughout.
As to `COc1cc2c(cc1OC)C/C(=N\O)c1cc(OC)c(OC)cc1/C=C\2`, the TGI in [1] was > 100 µM; in assay [2], > 100 µM; in [3], 28.7 µM; in [4], 31.8 µM; in assay [5] it was > 100 µM; in assay [6], 15.4 µM. Besides, the TGI is > 100 µM in assay [7]; > 96.4 µM in assay [8]; > 100 µM in assay [9]; > 100 µM in assay [10]; > 41.1 µM in assay [11].
As for `CCOP(=O)(OCC)C(Cc1cn(S(=O)(=O)c2ccc(C)cc2)cn1)C(=O)O` (centres undefined), the TGI in assay [1], in assay [2], in assay [3], in assay [4], in assay [5] and in assay [6] was > 100 µM in each case. The TGI in assay [7], in [8], in [9], in [10] and in assay [11] was > 100 µM in each case.
For `CCCCCCCCC/C=C1/CC(CO)(COC(=O)C2CCCCC2)OC1=O` (centres undefined), the TGI in [1], in assay [2], in assay [3], in [4], in [5] and in assay [6] was > 100 µM in each case. The TGI in [7], in [8], in assay [9], in [10] and in [11] was > 100 µM each time.
With `CN(C)CC(O)CNC(=O)Nc1ccccc1` (centres undefined), the TGI in assay [1], in [2], in assay [3], in assay [4], in assay [5] and in assay [6] was > 100 µM in each case. Further, the TGI in assay [7], in [8], in assay [9], in [10] and in assay [11] was > 100 µM throughout.
With `O=C(O)C(=Cc1ccc(-c2ccc([N+](=O)[O-])cc2)o1)C(=O)O`, the TGI in assay [1], in assay [2], in [3], in assay [4], in assay [5] and in [6] was > 100 µM in each case. The TGI in assay [7], in [8], in [9], in assay [10] and in assay [11] was > 100 µM throughout.
`C[C@]12CC[C@@H]3c4cc(C=O)c(OCc5ccccc5)cc4CC[C@H]3[C@@H]1CCC2OCc1ccccc1` (some centres undefined): the TGI in assay [1], in assay [2], in [3], in assay [4], in assay [5] and in assay [6] was > 100 µM each time. Moreover, the TGI in assay [7], in assay [8], in assay [9], in assay [10] and in [11] was > 100 µM in each case.
As for `Cc1ccnc2[nH]c(-c3ccc(Cl)cc3)cc(=O)c12`, the TGI in [1] was > 100 µM; in assay [2], 46.6 µM; in assay [3], > 21.9 µM; in [4], > 100 µM; in assay [5], > 100 µM; in assay [6], > 100 µM. Moreover, the TGI is 60 µM in assay [7]; > 100 µM in assay [8]; 4.59 µM in [9]; > 100 µM in assay [10]; > 100 µM in assay [11].
On to `O=C(NC12CC3CC(CC(C3)C1)C2)n1cnc2c(Cl)ncnc21`, for which the TGI in assay [1] was > 100 µM; in assay [2], > 100 µM; in [3] it was 32.6 µM; in [4], 38.9 µM; in [5] it was > 100 µM; in [6] it was 70.3 µM. In addition, the TGI was > 100 µM in assay [7]; > 100 µM in assay [8]; 45.9 µM in assay [9]; 57.4 µM in assay [10]; 92.3 µM in assay [11].
For `Cc1cccc(N=Nc2ccc(O)c(CN(C)C)c2)c1`, the TGI was 92.5 µM in [1]; 38.8 µM in assay [2]; 28.6 µM in assay [3]; 30.3 µM in assay [4]; 80.6 µM in [5]; 53.8 µM in assay [6]. The TGI in assay [7] was 16.1 µM; in [8], > 100 µM; in assay [9], 75.2 µM; in assay [10] it was > 100 µM; in assay [11], > 100 µM.
Turning to `C=c1c2ccccc2oc2nc3[nH]c(N)c(C#N)c(N)c3c(=N)c12`, the TGI in assay [1] is > 100 µM; in [2], > 100 µM; in assay [3], > 100 µM; in [4], 66.7 µM; in assay [5], > 100 µM; in [6], 80.8 µM. Further, the TGI in [7] was > 100 µM; in assay [8], > 100 µM; in assay [9], > 100 µM; in assay [10], 70.9 µM; in [11] it was > 100 µM.
With `COC(=O)C1=C(C(=O)OC)SC2(S1)C(C(=O)OC)=C(C(=O)OC)Sc1c2ssc1=O`, the TGI in assay [1] stood at 1.21 µM; in [2], 3.68 µM; in assay [3], 2.08 µM; in [4], 2.72 µM; in [5], 1.57 µM; in assay [6], 1.78 µM. The TGI in assay [7] is 2.86 µM; in assay [8], 4.65 µM; in assay [9], 3.57 µM; in assay [10] it was 10.3 µM; in assay [11], 4.68 µM.
`C#CCn1c(=O)c2cc(OC)c(OC)cc2n(CC#C)c1=O`: the TGI in [1], in [2], in assay [3], in assay [4], in assay [5] and in [6] was > 10 µM throughout. Also, the TGI in assay [7], in assay [8], in assay [9], in [10] and in assay [11] was > 10 µM each time.
As for `CN1CN(c2ccccc2)C2(CCN(C(=O)OC(C)(C)C)CC2)C1=O`, the TGI in assay [1], in assay [2], in assay [3], in [4], in assay [5] and in assay [6] was > 100 µM each time. The TGI in assay [7], in assay [8], in [9], in assay [10] and in assay [11] was > 100 µM throughout.
With `CC(C)(C)c1ccc(OCCOc2ccc(C(C)(C)C)cc2NC=O)c(NC=O)c1`, the TGI in assay [1] was 37.8 µM; in assay [2], 40 µM; in assay [3], 4.33 µM; in [4], 23.5 µM; in assay [5], 26.4 µM; in [6], 7.32 µM. For the same compound, the TGI is > 43.7 µM in assay [7]; 23.2 µM in assay [8]; 27.3 µM in [9]; 65.8 µM in [10]; 34.7 µM in assay [11].
For `COc1ccc(/C=C2\CCC(C)(CN(C)C)C2=O)cc1Br` (centres undefined), the TGI in assay [1] was 34.9 µM; in assay [2], 50 µM; in [3] it was 34.4 µM; in [4] it was 35.8 µM; in [5], 32.2 µM; in assay [6] it was 49.6 µM. Moreover, the TGI in assay [7] worked out at 64.9 µM; in assay [8], 42.1 µM; in [9], 41.2 µM; in assay [10], 23.3 µM; in assay [11] it was 45.1 µM.
Take `CC(=O)OC1CC[C@@]2(C)C(=CC[C@@H]3[C@@H]2CC[C@]2(C)Nc4c(cnn4-c4ccc(F)cc4)C[C@@H]32)C1` (some centres undefined): the TGI in [1] is > 59.2 µM; in assay [2], > 83.1 µM; in assay [3] it was > 78.7 µM; in assay [4], > 100 µM; in [5] it was > 100 µM; in assay [6], > 100 µM. Besides, the TGI is > 100 µM in assay [7]; > 95.6 µM in assay [8]; > 100 µM in assay [9]; > 100 µM in [10]; 47.3 µM in [11].
For `COc1cccc2c1CCc1sc(CN3CCN(C)CC3)nc1-2`, the TGI is > 100 µM in assay [1]; > 100 µM in assay [2]; > 100 µM in [3]; > 100 µM in [4]; > 100 µM in [5]; 54.1 µM in [6]. Moreover, the TGI in assay [7], in assay [8], in assay [9], in assay [10] and in [11] was > 100 µM throughout.
